One molecule from BindingDB's records for doi:10.1016/S0960-894X(00)80673-3 (1993) can be followed below.

For this assay, the target named is HIV-2 protease (Human immunodeficiency virus 2). Briefly: Tested for the inhibition of HIV-2 protease.

One may read the Ki as the dissociation constant of the complex between target and ligand, obtained from inhibition or displacement. In turn, `CCC(C)[C@H](NC(=O)[C@@H](C[C@H](O)[C@H](CC1CCCCC1)NC(=O)[C@H](CC(N)=O)NC(=O)c1ccc2ccccc2n1)C(C)C)C(=O)NCc1ccccn1` (stereo partly drawn) [(S)-N*1*-((1S,2S,4S)-1-Cyclohexylmethyl-2-hydroxy-5-methyl-4-{(S)-2-methyl-1-[(pyridin-2-ylmethyl)-carbamoyl]-butylcarbamoyl}-hexyl)-2-[(quinoline-2-carbonyl)-amino]-succinamide] displayed a Ki of 65 nM.
